Data on seven compounds can be found in US7544814B2, “[3.2.0] Heterocyclic compounds and methods of using the same” (Nereus Pharmaceuticals, Inc., priority 2004, dated 2009).

Values joined by “and” are separate entries in the source; they are usually repeats but may differ in a detail not shown here. Identical values can stand only once. Like-named read-outs stand apart in the source and are kept apart here.

Series [1] has as its target T1, trypsin-like activity of purified rabbit muscle 20S proteasome (Oryctolagus cuniculus, UniProt G1SWK8).
T1 sequence (G1SWK8 1-271): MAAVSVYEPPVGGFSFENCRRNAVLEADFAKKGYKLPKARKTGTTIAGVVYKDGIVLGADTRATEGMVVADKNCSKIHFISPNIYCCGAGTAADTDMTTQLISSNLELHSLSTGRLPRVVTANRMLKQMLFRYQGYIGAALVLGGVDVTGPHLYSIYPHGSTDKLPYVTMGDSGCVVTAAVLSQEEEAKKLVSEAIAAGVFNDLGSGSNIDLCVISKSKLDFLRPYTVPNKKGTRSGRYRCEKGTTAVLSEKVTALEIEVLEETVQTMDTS
Kind of series: biochemical.

For series [2], the target named is T2, chymotrypsin-like activity of purified rabbit muscle 20S proteasome (Oryctolagus cuniculus, UniProt G1T4Q9).
T2 sequence (G1T4Q9 1-263): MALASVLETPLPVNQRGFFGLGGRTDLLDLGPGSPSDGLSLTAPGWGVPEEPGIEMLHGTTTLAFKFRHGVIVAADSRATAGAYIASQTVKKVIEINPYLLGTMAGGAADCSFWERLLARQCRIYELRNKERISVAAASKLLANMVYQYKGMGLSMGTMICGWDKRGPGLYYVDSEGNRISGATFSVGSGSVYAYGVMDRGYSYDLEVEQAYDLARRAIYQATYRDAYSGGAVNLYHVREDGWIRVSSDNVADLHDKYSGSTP
Kind of series: In vitro inhibition of 20S proteasome chymotrypsin-like activity (suc-LLVY-AMC).

For series [3], the target named is T3, caspase-like activity of purified rabbit muscle 20S proteasome (Oryctolagus cuniculus, UniProt A0A5F9DQW2).
T3 sequence (A0A5F9DQW2 1-212): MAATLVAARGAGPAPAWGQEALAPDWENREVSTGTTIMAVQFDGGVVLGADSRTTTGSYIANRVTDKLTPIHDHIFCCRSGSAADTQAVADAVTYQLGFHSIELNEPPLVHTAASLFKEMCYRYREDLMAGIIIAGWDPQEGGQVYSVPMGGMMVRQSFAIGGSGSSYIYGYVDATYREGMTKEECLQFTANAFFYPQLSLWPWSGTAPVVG
Kind of series: In vitro inhibition of 20S proteasome caspase-like activity (Z-LLE-AMC).

Series [4] concerns NF-κB. The experiment in a line: NF-κB-mediated luciferase reporter gene assay, HEK293 NF-κB/Luc cells, TNF-α stimulation. The format is cell-based, human. Conditions: for effect on luciferase activity upon TNF-α stimulation, in words: pretreatment of NF-κB/Luc 293 cells. On the procedure:
The HEK293 NF-κB/luciferase reporter cell line is a derivative of the human embryonic kidney cell line (ATCC; CRL-1573) and carries a luciferase reporter gene under the regulation of 5× NF-κB binding sites. […] When performing the luciferase assay, the DMEM basal medium was replaced with phenol-red free DMEM basal medium and the G418 was omitted.
For NF-κB-mediated luciferase assays, HEK293 NF-κB/luciferase cells were seeded at 1.5×10^4 cells/well in 90 μl phenol-red free DMEM complete medium into Corning 3917 white opaque-bottom tissue culture plates. For Formula II-2, Formula II-4, Formula II-5A, and Formula II-18, a 400 μM starting dilution was made in 100% DMSO and this dilution was used to generate a 8-point half log dilution series. […] For Formula II-20, a 2.5 mM or 8 mM starting solution was made in 100% DMSO and the final test concentrations ranged from 6.3 μM to 2.0 nM or 20 μM to 6.3 nM, respectively. The plates were returned to the incubator for 1 hour. After 1 hr pretreatment, 10 μl of a 50 ng/ml TNF-α solution, prepared in the phenol-red free DMEM medium was added, and the plates were incubated for an additional 6 hr.
At the end of the TNF-α stimulation, 100 μl of Steady Lite HTS luciferase reagent (Packard Bioscience) was added to each well and the plates were left undisturbed for 10 min at room temperature before measuring the luciferase activity. The relative luciferase units (RLU) were measured by using a Fusion microplate fluorometer (Packard Bioscience).
In general terms: Reporter assays use an easily measured gene product as a stand-in for the process of interest.

In series [5] the test system is U266. Kind of series: Cell growth inhibition (resazurin), U266. Conditions: for cytotoxicity against U266, in words: from EC50 values; for EC50: 48 hours drug exposure. In general terms: The colour change of resazurin is a common sign of viable cells or microbes.
Series [6] concerns RPMI 8226. Kind of series: Cell growth inhibition (resazurin), RPMI 8226. Conditions: for cytotoxicity against RPMI 8226, in words: from EC50 values.
Series [7] deals with T1, trypsin-like activity of purified rabbit muscle 20S proteasome. Kind of series: In vitro inhibition of 20S proteasome trypsin-like activity (Boc-LRR-AMC).
Series [8] has as its system NCI-H292. The experiment in a line: Cell growth inhibition (resazurin), NCI-H292. Conditions: Homo sapiens, NCI-H292, 48 h, read-out: EC50 against NCI-H292.
Setting [9] is: EC50 Chymotrypsin-like, Table 6, values in nM.
[10] abbreviates: EC50 values, chymotrypsin-like activity, summary of Table 6.
[11] abbreviates: EC50 Caspase-like, Table 6, values in nM.
[12] abbreviates: Homo sapiens, HEK293, read-out: EC50, NF-κB-mediated luciferase reporter gene assay, Table 5, values in μM, 1 hr pretreatment, TNF-α 6 hr.
The mark [13] stands for this setting: Homo sapiens, RPMI-8226, 48 h, read-out: RPMI 8226 EC50, Table 2, 48 hours drug exposure, mean ± SD where n≥3.
Setting [14] is: read-out: RPMI 8226 EC50, Table 2, 48 hours drug exposure, mean ± SD where n≥3.
The mark [15] stands for this setting: EC50 Caspase-like, Table 6, values in μM.
Where [16] appears, read: EC50 values, caspase-like activity, range in mixed units, summary of Table 6, range from nM to μM.
Where [17] appears, read: Homo sapiens, U-266, 48 h, read-out: U266 EC50, Table 2.

In general, EC50 refers to the midpoint of the concentration-response curve. Turning to `C[C@@]12OC(=O)[C@]1([C@@H](O)[C@@H]1C=CCCC1)NC(=O)[C@@H]2CCN=[N+]=[N-]` [Formula II-29], the EC50 is 175 nM and 254 nM in series [1]; 6 nM and 8 nM in series [2] (setting [9]); 2 to 11 nM in series [2] (setting [10]); 535 nM and 520 nM in series [3] (setting [11]); 213 to 850 nM in series [3] (EC50 values, caspase-like activity, summary of Table 6); 1.2 µM in series [4] (setting [12]). The concentration for a half-maximal effect (EC50) in series [4] (read-out: EC50, NF-κB-mediated luciferase reporter gene assay, Table 5, values in μM, 1 hr pretreatment, TNF-α 6 hr) amounted to 1.4 µM; in series [6] (setting [13]), 4280 nM; in series [6] (setting [14]) it was 6940 nM. In addition, the “effect on luciferase activity upon TNF-α stimulation, in words” value (“effect” below) in series [4] was “dose-dependent decrease”. Moreover, in series [5], the “cytotoxicity against U266, in words” value is “cytotoxic”. Further, in series [6], the “cytotoxicity against RPMI 8226, in words” value was “cytotoxic”. In addition, the “inhibition of the trypsin-like activity of the 20S proteasome, in words” value (“inhibition” below) in series [7] (under the conditions tested) was “able to inhibit”.
As to `COC(=O)CCSC(=O)C1(C(O)C2C=CCCC2)NC(=O)C2CCOC21C` (centres unmarked) [Formula VI-1A], the EC50 is 3100 nM and 3000 nM in series [1]; 274 nM and 207 nM in series [2] (setting [9]); 207 to 964 nM in series [2] (setting [10]); 7900 nM and 8700 nM in series [3] (setting [15]); 956 to 8700 nM in series [3] (setting [16]); greater than 20 µM in series [4] (setting [12]). Further, the EC50 in series [6] (setting [13]) came to 8400 nM; in series [6] (setting [14]) it was 7800 nM. Also, in series [6], the “cytotoxicity against RPMI 8226, in words” value is “cytotoxic”. Also, the “inhibition” value in series [7] (under the conditions tested) is listed as “able to inhibit”.
For the compound `CC[C@@]12OC(=O)[C@]1([C@@H](O)[C@@H]1C=CCCC1)NC(=O)[C@@H]2CCCl` [Formula II-24C], the EC50 in series [1] was 3300 nM and 3100 nM; in series [2] (EC50 Chymotrypsin-like, Table 6, values in μM) it was 2000 nM; in series [2] (EC50 values, chymotrypsin-like activity, range or bound stated in text, summary of Table 6), 1400 to 10600 nM; in series [3] (setting [15]) it was greater than 20000 nM; in series [4] (setting [12]), 5.3 µM; in series [5] (setting [17]), 1150 nM. The EC50 in series [5] (read-out: U266 EC50, Table 2) came out at 825 nM; in series [6] (setting [13]), 2320 nM; in series [6] (setting [14]), 1640 nM. Besides, in series [4], the “effect” value is recorded as “dose-dependent decrease”. Further, the “cytotoxicity against U266, in words” value in series [5] is “cytotoxic”. Moreover, the “cytotoxicity against RPMI 8226, in words” value in series [6] is on record as “cytotoxic”. For the same compound, in series [7] (under the conditions tested), the “inhibition” value was “able to inhibit”.
Turning to `C[C@@]12OC(=O)[C@]1([C@@H](O)[C@@H]1C=CCCC1)NC(=O)[C@@H]2CCO` [Formula II-21], the EC50 is 879 nM in series [1]; 8 nM in series [2] (setting [9]); 2 to 11 nM in series [2] (setting [10]); 8 nM in series [2] (Proteasome Chymotrypsin-like EC50, Table 12); 2600 nM and 2300 nM in series [3] (setting [15]); 956 to 8700 nM in series [3] (setting [16]). Further, the EC50 in series [3] (Proteasome Caspase-like EC50, Table 12) was 2580 nM and 2330 nM; in series [4] (Homo sapiens, HEK293, Table 5, values printed in μM, 1 hr pretreatment, TNF-α 6 hr, read-out: EC50, NF-κB-mediated luciferase reporter gene assay), 3.2 µM; in series [4] (Table 5, values in μM, 1 hr pretreatment, TNF-α 6 hr, read-out: EC50, NF-κB-mediated luciferase reporter gene assay), 2.7 µM; in series [4] (Table 12, read-out: NF-κB EC50), 2.71 µM; in series [5] (setting [17]), 6090 nM; in series [5] (read-out: U266 EC50, Table 2), 9670 nM. The EC50 in series [6] (setting [13]) was greater than 20000 nM; in series [6] (Homo sapiens, RPMI-8226, read-out: Cytotoxicity RPMI EC50, Table 12), greater than 20000 nM; in series [7] (read-out: Proteasome Trypsin-like EC50, Table 12), 879 nM. The “effect” value in series [4] is reported as “dose-dependent decrease”. Further, the “cytotoxicity against U266, in words” value in series [5] is “cytotoxic”. In series [7] (under the conditions tested), the “inhibition” value was “able to inhibit”.
In the case of `CCC[C@H]1C(=O)N[C@@]2([C@@H](O)[C@@H]3C=CCCC3)C(=O)O[C@@]12C` [Formula II-30], the EC50 in series [1] is 905 nM and 1200 nM; in series [2] (setting [9]), 21 nM; in series [2] (setting [10]), 13 to 88 nM; in series [3] (setting [11]), 956 nM; in series [3] (setting [15]), 1300 nM; in series [3] (setting [16]), 956 to 8700 nM. For the same compound, the 50% effective concentration (EC50) amounted to 2.2 µM in series [4] (setting [12]); 889 nM in series [5] (setting [17]); 1240 nM in series [5] (read-out: U266 EC50, Table 2); 4900 nM in series [6] (setting [13]); 4160 nM in series [6] (setting [14]). Moreover, in series [4], the “effect” value is “dose-dependent decrease”. The “cytotoxicity against U266, in words” value in series [5] is on record as “cytotoxic”. Further, the “cytotoxicity against RPMI 8226, in words” value in series [6] is on record as “cytotoxic”. The “inhibition” value in series [7] (under the conditions tested) is given as “able to inhibit”.
Consider `CC[C@H]1C(=O)N[C@@]2([C@@H](O)C3CCCCC3)C(=O)O[C@@]12C` [Formula II-3], for which the EC50 in series [8] was greater than 20000 nM; in series [1], 5500 nM and 7700 nM; in series [2] (setting [9]), 964 nM; in series [2] (setting [10]), 207 to 964 nM; in series [3] (setting [15]), greater than 20000 nM; in series [6] (setting [13]), greater than 20000 nM. Also, in series [7], the “inhibition” value is “able to inhibit”.
`CCC(=O)OCC[C@H]1C(=O)N[C@@]2([C@@H](O)[C@@H]3C=CCCC3)C(=O)O[C@@]12C` [Formula II-22]: the concentration giving a half-maximal response (EC50) is 289 nM in series [1]; 7 nM and 3 nM in series [2] (setting [9]); 2 to 11 nM in series [2] (setting [10]); 1300 nM and 1400 nM in series [3] (setting [15]); 956 to 8700 nM in series [3] (setting [16]); 0.728 µM in series [4] (Homo sapiens, HEK293, read-out: EC50, NF-κB-mediated luciferase reporter gene assay, Table 5, values in nM, 1 hr pretreatment, TNF-α 6 hr). Also, the EC50 is 1 µM in series [4] (setting [12]), 9720 nM in series [6] (setting [13]) and 11200 nM in series [6] (setting [14]). For the same compound, the “effect” value in series [4] is listed as “dose-dependent decrease”. The “cytotoxicity against U266, in words” value in series [5] is on record as “cytotoxic”. In addition, the “cytotoxicity against RPMI 8226, in words” value in series [6] is reported as “cytotoxic”. Moreover, in series [7] (under the conditions tested), the “inhibition” value is listed as “able to inhibit”.
